“Also recorded” adds a separate entry of the source.
Experiments:
Assay type in all cases: cell-based, human
[1] = system: Calu-3 monolayers; assay: Transepithelial short-circuit current (Isc) across unstimulated Calu-3 monolayers; conditions: compound added to mucosal (or serosal) perfusion; L-ascorbic acid 100 μM; dehydroascorbic acid 10, 100 or 300 μM
Procedure, shortened: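 Unstimulated Calu-3 monolayers given compound on the mucosal side at increasing concentrations. Chloride current recorded with serosal-to-mucosal chloride gradient at 0 mV, 2 mV pulses. Forskolin (20 μM, serosal) used for comparison.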

[2] = system: CF15 monolayers homozygous for ΔF508 CFTR; assay: Short-circuit current across CF15 monolayers homozygous for ΔF508 CFTR
Protocol: (§1) Human airway cell culture. The human submucosal serous gland-like cell line Calu-3, the CF nasal epithelial cell line homozygous for ΔF508 CFTR (CF15) and human tracheal primary cultures (hTE) were cultured as described (Jefferson, D. M., Valentich, J. D., Marini, F. C., Grubman, S. A., Iannuzzi, M. C., Dorkin, H. L., Li, M., Klinger, K. W. & Welsh, M. J. (1990) Am. J. Physiol. 259, L496-L505. Sachs, L. A., Finkbeiner, W. E. & Widdicombe, J. H. (2003) In Vitro Cell Dev. Biol. Anim. 39, 56-62.). Wildtype CFTR-corrected CF15 cells were generated via adenovirus-mediated gene transfer. Growth media were nominally free of ascorbic acid (<10 μm, University Pathology Inc., Salt Lake City, Utah). For transepithelial measurements cells were grown on permeable filter inserts and used after 3 to 10 days.
(§2) Short-circuit current measurement. Calu-3 or CF15 cells were grown as monolayers, mounted in Ussing chambers and short-circuit current (ISC) was recorded as described (Illek, B. & Fischer, H. (1998) Am. J. Physiol. 275, L902-L910). At 20-50 second intervals, transepithelial voltage was clamped from zero to 2 mV and the transepithelial resistance (Rte) was calculated. A serosa-to-mucosa-directed Cl gradient was applied. Serosal Ussing chamber solution contained (in mM): 120 NaCl, 20 NaHCO3, 5 KHCO3, 1.2 NaH2PO4, 5.6 glucose, 2.5 CaCl2, 1.2 MgCl2. In mucosal Ussing chamber solutions, all Cl salts were exchanged for gluconate salts.
The CF15 cell line was used to determine whether ascorbate-stimulated Cl currents were solely mediated by the CFTR Cl conductance. The CF15 cell line is characterized by the absence of functional CFTR in the apical plasma membrane but the presence of other non-CFTR Cl conductances (Jefferson, D. M., Valentich, J. D., Marini, F. C., Grubman, S. A., Iannuzzi, M. C., Dorkin, H. L., Li, M., Klinger, K. W. & Welsh, M. J. (1990) Am. J. Physiol. 259, L496-L505). A concentration of L-ascorbic acid that lay within the upper plateau of the dose response curve (500 μm) was applied and ascorbate-stimulated Cl currents in CF15 vs. wildtype CFTR-corrected CF15 monolayers was compared (FIG. 23A). […] The defective response to L-ascorbic acid was reversed in wildtype CFTR-corrected CF15 epithelia such that ISC responded promptly to L-ascorbic acid (ΔISC=7.5±0.5 μA/cm^2, n=6). The ascorbate-stimulated current was further activated by the cAMP agonist forskolin and total stimulated ISC averaged 12.1±1.1 μA/cm^2 (FIG. 4B). The ascorbate-stimulated Cl current reached 60±15% of the forskolin-stimulated current in CFTR-corrected CF15 monolayers, which was close to the corresponding findings in Calu-3 monolayers (68%, see FIG. 21A). […]
(§3) In this example, chloride currents stimulated by L-ascorbate or D-ascorbate were measured in CF15 versus. wildtype CFTR-corrected CF15 monolayers. A concentration of L-ascorbate (1 mM) or D-isoascorbate (300 μm) that lay within the upper plateau of the dose-response curve was applied to cells and the resulting chloride currents stimulated in CF15 versus wildtype CFTR-corrected CF15 monolayers were measured (FIG. 25 A-H). […]
The functional activation of ΔF508 CFTR was determined after correction of the underlying trafficking defect of ΔF508 CFTR using S-Nitrosoglutathione (Zaman, et al., Biochem Biophys Res Commun 284: 65-70, 2001; Snyder, et al., American Journal of Respiratory and Critical Care Medicine 165: 922-6, 2002; Andersson, et al. Biochemical and Biophysical Research Communication 297(3): 552-557, 2002.). […]

[3] = system: wildtype CFTR-corrected CF15 monolayers; assay: Short-circuit current across wildtype CFTR-corrected CF15 monolayers
Protocol: as §1, §2
The CF15 cell line was used to determine whether ascorbate-stimulated Cl currents were solely mediated by the CFTR Cl conductance. The CF15 cell line is characterized by the absence of functional CFTR in the apical plasma membrane but the presence of other non-CFTR Cl conductances (Jefferson, D. M., Valentich, J. D., Marini, F. C., Grubman, S. A., Iannuzzi, M. C., Dorkin, H. L., Li, M., Klinger, K. W. & Welsh, M. J. (1990) Am. J. Physiol. 259, L496-L505). A concentration of L-ascorbic acid that lay within the upper plateau of the dose response curve (500 μm) was applied and ascorbate-stimulated Cl currents in CF15 vs. wildtype CFTR-corrected CF15 monolayers was compared (FIG. 23A). […] The defective response to L-ascorbic acid was reversed in wildtype CFTR-corrected CF15 epithelia such that ISC responded promptly to L-ascorbic acid (ΔISC=7.5±0.5 μA/cm^2, n=6). The ascorbate-stimulated current was further activated by the cAMP agonist forskolin and total stimulated ISC averaged 12.1±1.1 μA/cm^2 (FIG. 4B). The ascorbate-stimulated Cl current reached 60±15% of the forskolin-stimulated current in CFTR-corrected CF15 monolayers, which was close to the corresponding findings in Calu-3 monolayers (68%, see FIG. 21A). The absence of ascorbate-stimulated Cl currents in CF15 monolayers supports the notion that non-CFTR Cl conductances were not activated by L-ascorbic acid.
as §3, with “A-H). All experiments were performed in the presence of the sodium channel blocker amiloride.” for “A-H).”

## O=C1O[C@H](C(O)CO)C(O)=C1O (stereo partly drawn) [L-ascorbic acid, L-xyloascorbic acid]
[1]
  transepithelial chloride currents in unstimulated tissue: very effectively stimulated transepithelial chloride secretion; also recorded: very effectively stimulated transepithelial chloride currents
[2]; CF15 treated with 1 mM SNOG for 5-24 hours, L-ascorbate 1 mM, n=10
  transepithelial chloride currents increased on average by: 2.1±0.1
[2]; uncorrected CF15, L-ascorbic acid 500 μm, n=5
  ΔISC: 1.3±0.5 μA/cm^2
[2]; untreated CF epithelia, L-ascorbate 1 mM, amiloride, n=13
  ΔIsc: 1.1±0.3 μA/cm^2
[3]
  ascorbate-stimulated Cl current, % of the forskolin-stimulated current: 60±15%
[3]; L-ascorbate 1 mM, amiloride, n=6
  ΔIsc: 7.5±0.5 μA/cm2
[3]; L-ascorbic acid 500 μm, n=6
  ΔISC: 7.5±0.5 μA/cm^2

Source: patent US8138158B2, “Compositions and methods for therapy for diseases characterized by defective chloride transport” (Children's Hospital & Research Center at Oakland, priority 1997, dated 2012)
